ChEMBL document CHEMBL4477222, “Discovery of Novel Thiophene-Based, Thumb Pocket 2 Allosteric Inhibitors of the Hepatitis C NS5B Polymerase with Improved Potency and Physicochemical Profiles” (J Med Chem, 2016)
Converted amounts (≈) assume the structure as drawn. The source made the active and inactive calls. The rule behind the calls is not given here.

Experiments:
[1] = Cytotoxicity against human W11.8 cells assessed as reduction in cell viability after 4 days; format: cell-based
Nonstructural protein 5A = Nonstructural protein 5A (Hepatitis C virus, UniProt Q5L478); assay: Inhibition of HCV genotype 2a NS5A; set-up: species or system Hepatitis C virus subtype 2a
[2] = biological target: RNA-directed RNA polymerase (Hepacivirus hominis, UniProt O39930, L419M); assay: Inhibition of HCV genotype 1a NS5B L419M mutant; set-up: species or system Hepatitis C virus subtype 1a
[3] = biological target: RNA-directed RNA polymerase (Hepacivirus hominis, UniProt O39930, L419I); assay: Inhibition of HCV genotype 1a NS5B L419I mutant; set-up: species or system Hepatitis C virus subtype 1a
[4] = system: Hepatitis C virus subtype 1b; assay: Inhibition of HCV genotype 1b NS5B assessed as suppression of sub-genomic RNA levels at 0.5 times IC50 after 96 hrs in presence of human interferon alpha2a and ribavirin by luciferase reporter gene assay
[5] = system: Hepatitis C virus subtype 1b; assay: Inhibition of HCV genotype 1b NS5B assessed as suppression of sub-genomic RNA levels after 96 hrs in presence of telaprevir by luciferase reporter gene assay
[6] = Metabolic stability in rat hepatocytes assessed as compound remaining at 10 uM after 2 hrs; format: ADME, cell-based, Hepatocyte; details: read-out: Stability
[7] = Metabolic stability in rat liver microsomal S9 fraction assessed as compound remaining at 1 uM after 2 hrs in presence of NADPH; format: ADME, subcellular; details: read-out: Stability
[8] = Metabolic stability in rat liver microsomal S9 fraction assessed as compound remaining at 1 uM after 2 hrs in presence of NADPH/UDPGA; format: ADME, subcellular; details: read-out: Stability
[9] = Protein binding in rat liver at 1 uM; format: ADME, tissue-based; details: read-out: PB (converted)
[10] = Protein binding in rat plasma at 1 uM; format: ADME, cell-free; details: read-out: PPB (converted)
[11] = Metabolic stability in dog liver microsomal S9 fraction assessed as compound remaining at 1 uM after 2 hrs in presence of NADPH; format: ADME, subcellular, Canis lupus familiaris; details: read-out: Stability
[12] = Metabolic stability in monkey hepatocytes assessed as compound remaining at 10 uM after 2 hrs; format: ADME, cell-based, Macaca mulatta, Hepatocyte; details: rhesus monkey, read-out: Stability
[13] = Metabolic stability in dog liver microsomal S9 fraction assessed as compound remaining at 1 uM after 2 hrs in presence of NADPH/UDPGA; format: ADME, subcellular, Canis lupus familiaris; details: read-out: Stability
[14] = Protein binding in dog liver at 1 uM; format: ADME, tissue-based, Canis lupus familiaris; details: read-out: PB (converted)
[15] = Protein binding in dog plasma at 1 uM; format: ADME, cell-free, Canis lupus familiaris; details: read-out: PPB (converted)
[16] = Metabolic stability in monkey liver microsomal S9 fraction assessed as compound remaining at 1 uM after 2 hrs in presence of NADPH/UDPGA; format: ADME, subcellular, Macaca mulatta; details: rhesus monkey, read-out: Stability
[17] = Protein binding in monkey liver at 1 uM; format: ADME, tissue-based, Macaca mulatta; details: rhesus monkey, read-out: PB (converted)
[18] = Protein binding in monkey plasma at 1 uM; format: ADME, cell-free, Macaca mulatta; details: rhesus monkey, read-out: PPB (converted)
[19] = Protein binding in human liver at 1 uM; format: ADME, tissue-based; details: read-out: PB (converted)
[20] = Protein binding in human plasma at 1 uM; format: ADME, cell-free; details: read-out: PPB (converted)
Cytochrome P450 2E1 = Cytochrome P450 2E1 (Homo sapiens, UniProt P05181); assay: Inhibition of CYP2E1 (unknown origin); format: ADME
Cytochrome P450 2E1, sequence (P05181 whole entry): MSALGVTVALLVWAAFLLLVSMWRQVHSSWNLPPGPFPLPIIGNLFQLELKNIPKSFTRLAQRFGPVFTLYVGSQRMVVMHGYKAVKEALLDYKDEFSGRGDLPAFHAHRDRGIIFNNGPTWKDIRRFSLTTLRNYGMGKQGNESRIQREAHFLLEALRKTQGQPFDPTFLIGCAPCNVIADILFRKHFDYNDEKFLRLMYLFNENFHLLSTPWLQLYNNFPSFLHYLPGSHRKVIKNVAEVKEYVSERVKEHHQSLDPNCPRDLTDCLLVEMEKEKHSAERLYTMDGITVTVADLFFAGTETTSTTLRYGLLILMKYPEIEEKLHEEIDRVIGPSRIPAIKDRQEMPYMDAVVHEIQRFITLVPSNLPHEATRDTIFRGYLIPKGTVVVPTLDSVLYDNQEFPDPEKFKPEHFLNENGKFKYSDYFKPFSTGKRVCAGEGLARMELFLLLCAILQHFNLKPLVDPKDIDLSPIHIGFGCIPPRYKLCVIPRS

Cytochrome P450 1A2 = Cytochrome P450 1A2 (Homo sapiens, UniProt P05177); assay: Induction of CYP1A2 (unknown origin) in hepatocytes; format: ADME, cell-based
Cytochrome P450 1A2, sequence (P05177 whole entry): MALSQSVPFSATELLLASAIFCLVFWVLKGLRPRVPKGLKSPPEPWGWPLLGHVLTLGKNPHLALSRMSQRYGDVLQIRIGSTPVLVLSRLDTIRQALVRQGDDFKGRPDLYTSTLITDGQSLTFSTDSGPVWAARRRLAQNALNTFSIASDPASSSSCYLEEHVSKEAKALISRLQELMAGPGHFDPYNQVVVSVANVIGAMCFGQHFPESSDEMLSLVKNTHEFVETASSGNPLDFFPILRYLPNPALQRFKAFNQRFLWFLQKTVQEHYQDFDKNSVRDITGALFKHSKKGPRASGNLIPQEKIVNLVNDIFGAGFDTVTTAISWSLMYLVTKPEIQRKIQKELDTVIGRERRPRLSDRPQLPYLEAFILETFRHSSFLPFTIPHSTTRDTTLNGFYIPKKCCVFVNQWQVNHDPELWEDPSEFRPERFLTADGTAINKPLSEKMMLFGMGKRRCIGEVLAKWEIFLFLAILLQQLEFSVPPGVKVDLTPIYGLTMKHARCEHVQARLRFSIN

Cytochrome P450 3A4 = Cytochrome P450 3A4 (Homo sapiens, UniProt P08684); assay: Induction of CYP3A4 (unknown origin) in hepatocytes; format: ADME, cell-based
Cytochrome P450 3A4, sequence (P08684 whole entry): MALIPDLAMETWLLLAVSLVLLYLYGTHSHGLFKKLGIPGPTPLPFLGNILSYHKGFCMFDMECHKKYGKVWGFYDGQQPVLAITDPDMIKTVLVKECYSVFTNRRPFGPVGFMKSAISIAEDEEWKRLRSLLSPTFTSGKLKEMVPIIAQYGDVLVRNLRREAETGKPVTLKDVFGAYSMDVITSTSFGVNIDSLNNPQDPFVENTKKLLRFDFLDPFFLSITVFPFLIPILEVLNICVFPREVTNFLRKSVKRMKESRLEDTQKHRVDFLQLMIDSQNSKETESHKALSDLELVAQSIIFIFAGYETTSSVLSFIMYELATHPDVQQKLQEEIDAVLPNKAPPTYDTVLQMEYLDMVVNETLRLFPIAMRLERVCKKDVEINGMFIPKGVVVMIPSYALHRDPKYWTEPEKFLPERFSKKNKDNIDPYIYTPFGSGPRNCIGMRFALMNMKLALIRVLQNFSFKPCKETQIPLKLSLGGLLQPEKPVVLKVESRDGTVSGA

Hepatocyte = assay: Change in CYP1A2 mRNA levels in hepatocytes (unknown origin); format: ADME, cell-based
[21] = Efflux ratio of permeability from basolateral to apical side over apical to basolateral side in human Caco2 cells; format: ADME, cell-based; details: Caco-2
MDR1 = assay: Efflux ratio of permeability from basolateral to apical side over apical to basolateral side in MDCK cells expressing MDR1; format: ADME, cell-based, Canis lupus familiaris; details: dog
[22] = Cmax in Sprague-Dawley rat at 3 mg/kg, po; format: ADME, organism-based; set-up: dose 3 mg/kg, route oral; details: in vivo
[23] = Oral bioavailability in Sprague-Dawley rat at 3 mg/kg; format: ADME, organism-based; details: in vivo
[24] = Half life in Sprague-Dawley rat at 3 mg/kg, po; format: ADME, organism-based; details: in vivo
[25] = Ratio of drug level in liver to lungs in Sprague-Dawley rat at 10 mg/kg, po; format: ADME, organism-based, Liver/Lung; details: in vivo
[26] = Ratio of drug level in liver to kidney in Sprague-Dawley rat at 10 mg/kg, po; format: ADME, organism-based; details: in vivo
[27] = Clearance in Fischer 344 rat at 1 mg/kg, iv through bolus administration; format: ADME, organism-based; details: in vivo
[28] = Volume of distribution in steady state in Fischer 344 rat at 1 mg/kg, iv through bolus administration; format: ADME, organism-based; details: in vivo, read-out: Vdss
[29] = AUC (0 to infinity) in Fischer 344 rat at 3 mg/kg, po; format: ADME, organism-based; set-up: dose 3 mg/kg, route oral, time infinity; details: in vivo
[30] = Cmax in Fischer 344 rat at 3 mg/kg, po; format: ADME, organism-based; set-up: dose 3 mg/kg, route oral; details: in vivo
[31] = Half life in Fischer 344 rat at 3 mg/kg; format: ADME, organism-based; details: in vivo
[32] = AUC (0 to infinity) in dog at 1 mg/kg, iv through bolus administration; format: ADME, organism-based, Canis lupus familiaris; set-up: dose 1 mg/kg, route intravenous, time infinity; details: in vivo
[33] = Clearance in dog at 1 mg/kg, iv through bolus administration; format: ADME, organism-based, Canis lupus familiaris; details: in vivo
[34] = Half life in dog at 1 mg/kg, iv through bolus administration; format: ADME, organism-based, Canis lupus familiaris; details: in vivo
[35] = AUC (0 to infinity) in monkey at 1 mg/kg, iv through bolus administration; format: ADME, organism-based, Macaca mulatta; set-up: dose 1 mg/kg, route intravenous, time infinity; details: rhesus monkey, in vivo
[36] = Volume of distribution in steady state in monkey at 1 mg/kg, iv through bolus administration; format: ADME, organism-based, Macaca mulatta; details: rhesus monkey, in vivo, read-out: Vdss
[37] = Ratio of drug level in plasma to lungs in Sprague-Dawley rat at 10 mg/kg, po; format: ADME, organism-based, Lung/Plasma; details: in vivo
[38] = Solubility of the compound in potassium phosphate buffer at pH 7; format: physicochemical
[39] = Chemical stability of compound under long term storage in solution; format: physicochemical
[40] = system: NS3 protease (Hepatitis C virus subtype 1b), Q0ZMF1 [A156S]; assay: Inhibition of telaprevir-resistant HCV NS3 protease A156S mutant; details: Hepacivirus hominis
[41] = system: NS3 protease (Hepacivirus C), C1KIQ2 [A156T]; assay: Inhibition of telaprevir-resistant HCV NS3 protease A156T mutant; details: Hepacivirus hominis
[42] = system: Nonstructural protein 5A (Hepatitis C virus), Q5L478 [UNDEFINED MUTATION]; assay: Inhibition of BMS-790052-resistant HCV genotype 1a NS5A Q30H mutant; details: Hepatitis C virus subtype 1a
[43] = system: Nonstructural protein 5A (Hepatitis C virus), Q5L478 [UNDEFINED MUTATION]; assay: Inhibition of BMS-790052-resistant HCV genotype 1a NS5A L31M mutant; details: Hepatitis C virus subtype 1a
[44] = system: Nonstructural protein 5A (Hepatitis C virus), Q5L478 [UNDEFINED MUTATION]; assay: Inhibition of BMS-790052-resistant HCV genotype 1b NS5A L31V mutant; details: Hepatitis C virus subtype 1b
[45] = biological target: CYP450 (family, isoform not stated) (Homo sapiens, UniProt P04798+P05177+P05181+P08684+P10632+P10635+P11509+P11712+P13584+P20813+P20815+P20853+P24462+P24903+P33260+P33261+P51589+P78329+P98187+Q02928+Q08477+Q16678+Q16696+Q5TCH4+Q6VVX0+Q7Z449+Q8TAV3+Q96SQ9+Q9HB55); assay: Inhibition of CYP450 (unknown origin); format: ADME, protein assay

For `CC(C)(C)C#Cc1cc(N(CC(=O)N2CCOCC2)C(=O)[C@H]2CC[C@H](C)CC2)c(C(=O)O)s1`, the CC50 at 96 h [1] was over 20 µM, the EC50 (Nonstructural protein 5A) was 4.8 µM and the EC50 [2] was 0.24 µM. For the same molecule, the EC50 [3] was 0.4 µM, the inhibition [4] was “Active” and the inhibition [5] was “Active”. For the same molecule, the remaining at 2 h, 10 µM [6] was 100%, the remaining at 2 h, 1 µM [7] was 99% and the remaining at 2 h, 1 µM [8] was 79%. It also gave a fraction unbound at 1 µM [9] of 0.162, a fraction unbound at 1 µM [10] of 0.003 and a remaining at 2 h, 1 µM [11] of 82%. The remaining at 2 h, 10 µM [12] was 30%, the remaining at 2 h, 1 µM [13] was 82% and the fraction unbound at 1 µM [14] was 0.14. For the same molecule, the fraction unbound at 1 µM [15] was 0.025, the remaining at 2 h, 1 µM [16] was 14% and the fraction unbound at 1 µM [17] was 0.093. For the same molecule, the fraction unbound at 1 µM [18] was 0.023, the fraction unbound at 1 µM [19] was 0.153 and the fraction unbound at 1 µM [20] was 0.014. For the same molecule, the IC50 (Cytochrome P450 2E1) was 14 µM, the Activity (Cytochrome P450 1A2) was “Not Active” and the Activity (Cytochrome P450 3A4) was “Not Active”. The Activity (Hepatocyte) was “Non-Toxic”, the efflux ratio [21] was 14 and the efflux ratio (MDR1) was 9.8. The Cmax [22] was 1.73 µg/mL, the bioavailability [23] was 69% and the half-life [24] was 3.04 h. It also gave a Ratio [25] of 10, a Ratio [26] of 10 and a clearance [27] of 0.828 L/h/kg. The Vd [28] was 0.86 L/kg, the AUC(0-inf) [29] was 0.31 µg·h/mL and the Cmax [30] was 0.24 µg/mL. The half-life [31] was 2.1 h, the AUC(0-inf) [32] was 1.36 µg·h/mL and the clearance [33] was 0.606 L/h/kg. It also gave a half-life [34] of 9.8 h, an AUC(0-inf) [35] of 1.73 µg·h/mL and a Vd [36] of 0.23 L/kg. The Ratio [37] was 10, the solubility [38] was 1.8 mg/mL (≈ 3.79 mM) and the Stability [39] was “Stable”. For the same molecule, the inhibition [40] was “Active”, the inhibition [41] was “Active” and the inhibition [42] was “Active”. The inhibition [43] was “Active”, the inhibition [44] was “Active” and the IC50 [45] was over 40 µM.
